Data: patent publication US20250262161A1, “COMPOSITION, METHOD FOR ITS PREPARATION AND ITS USE FOR INCREASING THE SOLUBILITY OF ACTIVE SUBSTANCES” (Philipps-Universität Marburg, priority 2021, published 2025)

Test: Solubility of curcumin in water (amount dissolved, UV/Vis measurement)
Assay type: physicochemical
Conditions: visual yellow colouring of supernatant
Procedure: Curcumin was first incorporated into eggshell flour. Two different methods were used for this purpose. […] Ethanol was evaporated without stirring (HP). […] Ethanol was evaporated with stirring (R). For comparison, curcumin was mixed with eggshell meal (physical mixture=PM) and added to water as a pure substance (bulk). From all samples, the amount of dissolved curcumin was measured. […] The dissolved amount of curcumin was determined at different time points by UV/Vis measurement. […] For method 2, the solubility was approximately 50 times higher.
The physical mixture contained similar amounts.

COc1cc(/C=C/C(=O)CC(=O)/C=C/c2ccc(O)c(OC)c2)ccc1O [pure substance, Curcumin]
dissolution of curcumin in the water phase (discolouration of aqueous supernatant): no dissolution of curcumin occurred
